One experiment concerns the target PBK (Homo sapiens (Human), UniProt Q96KB5). Nature of the experiment: Kinase assay (IMAP fluorescence polarization, FITC-labeled histone H3 peptide). The format is biochemical. How it is done:
PBK activity was determined in the presence or absence of compounds using fluorescein isothiocyanate-labeled (FITC-labeled) histone H3 peptide as a substrate. […] The serially diluted compounds, 0.8 ng/micro-L PBK (Carna Biosciences) and 100 nM FITC-labeled histone H3 peptide were reacted in a reaction buffer (20 mM HEPES, 0.01% Tween-20, 0.3 mM MgCl2, 2 mM dithiothreitol, 50 micro-M ATP, pH 7.4) at room temperature for 1 hour. The reaction was stopped by the addition of three fold assay volume of progressive binding solution. […] IC50 values were calculated by nonlinear four parameter fit using SigmaPlot, version 10.0 (Systat Software, Inc.).
For orientation: Fluorescence polarisation rises when a labelled molecule tumbles more slowly, as on binding a larger partner.

Another experiment deals with BT-549 cells. In words: Cell-based assay, cellular growth (Cell Counting Kit-8, 72 hours). The settings on record: Homo sapiens, BT549 cells. As for the experimental part: (§1) 100 micro-L of cell suspension was seeded onto 96-well microtiter plate (ViewPlate-96FTC, PerkinElmer). […] Cellular growth was determined using Cell Counting Kit-8 (DOJINDO) at 72 hours after the exposure of the candidate inhibitors. […] Accurate IC50 values were calculated as described previously.
For orientation: Tetrazolium dyes change colour on reduction, which living cells bring about.

Another experiment relates to A549 cells. The description is as above. The settings on record: Homo sapiens. How it is done: as §1
In the next experiment the test system is T47D cells. The experiment is described as above. The settings on record: Homo sapiens. How it is done: as §1
The next experiment relates to HT-1197 cells. Nature of the experiment: Cell-based assay, cellular growth (Cell Counting Kit-8, 72 hours), PBK-negative control cells. The settings on record: Homo sapiens. How it is done:
as §1

[1] abbreviates: PBK 0.8 ng/micro-L, 50 micro-M ATP, 100 nM FITC-labeled histone H3 peptide, room temperature 1 hour.
Setting [2] is: HT1197 cells (PBK-negative control).

Molecules are shown by their SMILES. pIC50: −log10 of the molar value. Counter-ions that a name gives are not always drawn. Like-named read-outs stand apart in the source and are kept apart here.

Chain of PBK (Q96KB5 whole entry): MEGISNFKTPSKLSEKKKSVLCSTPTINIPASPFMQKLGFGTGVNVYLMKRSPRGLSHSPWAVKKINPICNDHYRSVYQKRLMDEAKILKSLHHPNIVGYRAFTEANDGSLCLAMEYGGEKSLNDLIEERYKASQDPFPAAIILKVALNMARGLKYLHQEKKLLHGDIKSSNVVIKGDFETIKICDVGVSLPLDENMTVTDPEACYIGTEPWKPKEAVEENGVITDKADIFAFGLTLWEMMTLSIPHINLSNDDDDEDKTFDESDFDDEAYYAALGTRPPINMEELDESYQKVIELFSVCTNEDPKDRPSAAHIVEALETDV

By pIC50 is commonly meant the negative decadic logarithm of the IC50, by convention in mol/L. Read a low pIC50 as a high IC50. With `CN[C@H](C)c1ccc(-c2c(O)ccc3[nH]c(=O)c4sccc4c23)cc1` [Compound 1052, (R)-8-hydroxy-9-(4-(1-(methylamino)ethyl)phenyl)thieno[2,3-c]quinolin-4(5H)-one hydrochloride], the pIC50 against PBK (setting [1]) was 8.89; with BT-549 cells, 6.77; in the experiment with A549 cells (A549, 72 h) it was 6.77; in the experiment with T47D cells (T47D, 72 h), 6.49; in the experiment on HT-1197 cells (HT1197, 72 h), 6.35.

Regarding `C[C@@H](N)c1ccc(-c2c(O)cc(Cl)c3[nH]c(=O)c4sccc4c23)cc1` [Compound 1081, (R)-9-(4-(1-aminoethyl)phenyl)-6-chloro-8-hydroxythieno[2,3-c]quinolin-4(5H)-one hydrochloride], the negative-log IC50 (pIC50) was 8.07 against PBK; 7.07 in the experiment with BT-549 cells; 7.00 in the experiment on A549 cells (A549, 72 h); 6.77 in the experiment with T47D cells (T47D, 72 h); 6.41 in the experiment with HT-1197 cells (HT1197, 72 h).

For `CC(CN(C)C)c1ccc(-c2c(O)ccc3[nH]c(=O)c4sccc4c23)cc1` (stereo not shown) [Compound 1112, 9-(4-(1-(dimethylamino)propan-2-yl)phenyl)-8-hydroxythieno[2,3-c]quinolin-4(5H)-one hydrochloride], the negative logarithm of the IC50 (pIC50) is 8.48 at PBK; 6.68 in the experiment with BT-549 cells; 6.60 in the experiment with A549 cells; 6.33 with T47D cells; 6.19 with HT-1197 cells (setting [2]).

Consider `C[C@H](c1ccc(-c2c(O)cc(Cl)c3[nH]c(=O)c4sccc4c23)cc1)N(C)C` [Compound 1126, (R)-6-chloro-9-(4-(1-(dimethylamino)ethyl)phenyl)-8-hydroxythieno [2,3-c]quinolin-4(5H)-one hydrochloride], for which the pIC50 on PBK (setting [1]) is 7.38; with BT-549 cells, 6.85; in the experiment with A549 cells (A549, 72 h), 6.96; in the experiment with T47D cells (T47D, 72 h), 6.54; in the experiment on HT-1197 cells (HT1197, 72 h) it was 6.49.

With `CN[C@H](C)c1ccc(-c2c(O)cc(Cl)c3[nH]c(=O)c4sccc4c23)cc1` [Compound 1132, (R)-6-chloro-8-hydroxy-9-(4-(1-(methylamino)ethyl)phenyl)thieno[2,3-c]quinolin-4(5H)-one hydrochloride], the pIC50 against PBK (setting [1]) was 7.85; with BT-549 cells, 7.01; in the experiment with A549 cells (A549, 72 h), 7.05; in the experiment on T47D cells (T47D, 72 h), 6.72; in the experiment on HT-1197 cells (HT1197, 72 h) it was 6.49.

Take `NCCc1ccc(-c2c(O)cc(Cl)c3[nH]c(=O)c4sccc4c23)cc1` [Compound 1133, 9-(4-(2-aminoethyl)phenyl)-6-chloro-8-hydroxythieno[2,3-c]quinolin-4(5H)-one hydrochloride]: the negative-log IC50 (pIC50) is 7.70 against PBK; 6.82 in the experiment with BT-549 cells; 6.74 in the experiment on A549 cells (A549, 72 h); 6.64 with T47D cells (T47D, 72 h); 6.06 in the experiment on HT-1197 cells (HT1197, 72 h).

Consider `CC(CN)c1ccc(-c2c(O)cc(Cl)c3[nH]c(=O)c4sccc4c23)cc1` (stereo not shown) [Compound 1136, 9-(4-(1-aminopropan-2-yl)phenyl)-6-chloro-8-hydroxythieno[2,3-c]quinolin-4(5H)-one hydrochloride], for which the pIC50 against PBK (setting [1]) is 8.07; in the experiment on BT-549 cells it was 7.49; with A549 cells (A549, 72 h), 7.46; with T47D cells (T47D, 72 h) it was 7.24; in the experiment on HT-1197 cells (HT1197, 72 h), 6.74.

`COc1ccc2[nH]c(=O)c3sccc3c2c1-c1ccc(S(=O)(=O)NCCCl)cc1` [Compound 1139, N-(2-chloroethyl)-4-(8-methoxy-4-oxo-4,5-dihydrothieno[2,3-c]quinolin-9-yl)benzenesulfonamide]: the pIC50 against PBK (setting [1]) was 7.15; in the experiment with BT-549 cells it was 7.77; in the experiment with A549 cells, 7.64; in the experiment on T47D cells it was 6.70; with HT-1197 cells (setting [2]) it was 4.85.

For the compound `NCCc1ccc(-c2c(O)cc(Br)c3[nH]c(=O)c4sccc4c23)cc1` [Compound 1142, 9-(4-(2-aminoethyl)phenyl)-6-bromo-8-hydroxythieno[2,3-c]quinolin-4(5H)-one hydrochloride], the negative logarithm of the IC50 (pIC50) was 7.35 on PBK (setting [1]); 6.77 with BT-549 cells; 6.68 in the experiment on A549 cells (A549, 72 h); 6.60 in the experiment on T47D cells (T47D, 72 h); 6.00 in the experiment on HT-1197 cells (HT1197, 72 h).

Consider `COc1ccc2[nH]c(=O)c3sccc3c2c1-c1ccc([C@@H](C)CN)cc1` [Compound 1161, (R)-9-(4-(1-aminopropan-2-yl)phenyl)-8-methoxythieno[2,3-c]quinolin-4(5H)-one hydrochloride], for which the pIC50 against PBK (setting [1]) is 8.70; in the experiment with BT-549 cells, 6.66; in the experiment on A549 cells (A549, 72 h), 6.57; in the experiment with T47D cells (T47D, 72 h) it was 6.35; in the experiment with HT-1197 cells (HT1197, 72 h), 6.09.

In the case of `C[C@@H](CN)c1ccc(-c2c(O)cc(Cl)c3[nH]c(=O)c4sccc4c23)cc1` [Compound 1166, (R)-9-(4-(1-aminopropan-2-yl)phenyl)-6-chloro-8-hydroxythieno[2,3-c]quinolin-4(5H)-one hydrochloride], the pIC50 on PBK (setting [1]) is 8.36; in the experiment on BT-549 cells, 7.89; in the experiment with A549 cells (A549, 72 h) it was 7.77; in the experiment on T47D cells (T47D, 72 h), 7.59; with HT-1197 cells (HT1197, 72 h) it was 6.92.

`C[C@@H](CN)c1ccc(-c2c(O)cc(Br)c3[nH]c(=O)c4sccc4c23)cc1` [Compound 1176, (R)-9-(4-(1-aminopropan-2-yl)phenyl)-6-bromo-8-hydroxythieno[2,3-c]quinolin-4(5H)-one hydrochloride]: the pIC50 against PBK (setting [1]) is 7.77; in the experiment with BT-549 cells it was 7.62; with A549 cells (A549, 72 h) it was 7.57; in the experiment on T47D cells (T47D, 72 h), 7.42; with HT-1197 cells (HT1197, 72 h), 7.00.

As for `COc1ccc2[nH]c(=O)c3sccc3c2c1-c1ccc(C(C)CN)c(F)c1` (stereo not shown) [Compound 1179, 9-(4-(1-aminopropan-2-yl)-3-fluorophenyl)-8-methoxythieno[2,3-c]quinolin-4(5H)-one hydrochloride], the pIC50 against PBK (setting [1]) was 8.52; in the experiment on BT-549 cells, 6.35; in the experiment with A549 cells (A549, 72 h), 6.20; in the experiment on T47D cells (T47D, 72 h) it was 6.07; in the experiment on HT-1197 cells (HT1197, 72 h) it was 5.72.

For `CNC[C@H](C)c1ccc(-c2c(O)ccc3[nH]c(=O)c4sccc4c23)cc1` [Compound 1187, (R)-8-hydroxy-9-(4-(1-(methylamino)propan-2-yl)phenyl)thieno[2,3-c]quinolin-4(5H)-one hydrochloride], the negative logarithm of the IC50 (pIC50) on PBK (setting [1]) is 8.89; in the experiment with BT-549 cells, 6.72; in the experiment with A549 cells (A549, 72 h) it was 6.70; in the experiment on T47D cells (T47D, 72 h), 6.72; in the experiment on HT-1197 cells (HT1197, 72 h) it was 6.49.

On to `C[C@@H](CN(C)C)c1ccc(-c2c(O)ccc3[nH]c(=O)c4sccc4c23)cc1` [Compound 1188, (R)-9-(4-(1-(dimethylamino)propan-2-yl)phenyl)-8-hydroxythieno[2,3-c]quinolin-4(5H)-one hydrochloride], for which the pIC50 at PBK is 8.60; in the experiment on BT-549 cells, 6.80; in the experiment with A549 cells, 6.80; in the experiment with T47D cells, 6.54; with HT-1197 cells (setting [2]), 6.37.

`Cc1cc(O)c(-c2ccc(C(C)CN)c(F)c2)c2c1[nH]c(=O)c1sccc12` (stereo not shown) [Compound 1190, 9-(4-(1-aminopropan-2-yl)-3-fluorophenyl)-8-hydroxy-6-methylthieno[2,3-c]quinolin-4(5H)-one hydrochloride]: the pIC50 is 8.29 against PBK (setting [1]); 7.82 in the experiment with BT-549 cells; 7.68 in the experiment with A549 cells (A549, 72 h); 7.72 in the experiment on T47D cells (T47D, 72 h); 6.96 in the experiment on HT-1197 cells (HT1197, 72 h).

For `Cc1cc(O)c(-c2ccc(CCN)cc2)c2c1[nH]c(=O)c1sccc12` [Compound 1191, 9-(4-(2-aminoethyl)phenyl)-8-hydroxy-6-methylthieno[2,3-c]quinolin-4(5H)-one hydrochloride], the pIC50 on PBK (setting [1]) was 7.72; with BT-549 cells, 7.19; in the experiment with A549 cells (A549, 72 h) it was 6.92; in the experiment with T47D cells (T47D, 72 h), 7.14; in the experiment with HT-1197 cells (HT1197, 72 h) it was 6.32.

With `Cc1cc(O)c(-c2ccc(C(C)CN(C)C)c(F)c2)c2c1[nH]c(=O)c1sccc12` (stereo not shown) [Compound 1193, 9-(4-(1-(dimethylamino)propan-2-yl)-3-fluorophenyl)-8-hydroxy-6-methylthieno[2,3-c]quinolin-4(5H)-one hydrochloride], the pIC50 was 7.34 on PBK; 6.85 in the experiment with BT-549 cells; 6.89 with A549 cells (A549, 72 h); 6.62 in the experiment with T47D cells (T47D, 72 h); 6.48 in the experiment on HT-1197 cells (HT1197, 72 h).

On to `COc1cc(Cl)c2[nH]c(=O)c3sccc3c2c1-c1ccc([C@@H](C)CN)cc1` [Compound 1201, (R)-9-(4-(1-aminopropan-2-yl)phenyl)-6-chloro-8-methoxythieno[2,3-c]quinolin-4(5H)-one hydrochloride], for which the pIC50 is 7.70 on PBK (setting [1]); 7.28 in the experiment with BT-549 cells; 7.34 in the experiment on A549 cells (A549, 72 h); 6.92 with T47D cells (T47D, 72 h); 6.85 in the experiment with HT-1197 cells (HT1197, 72 h).

Turning to `CC(CCl)NS(=O)(=O)c1ccc(-c2c(O)ccc3[nH]c(=O)c4sccc4c23)cc1` (stereo not shown) [Compound 1204, N-(1-chloropropan-2-yl)-4-(8-hydroxy-4-oxo-4,5-dihydrothieno[2,3-c]quinolin-9-yl)benzenesulfonamide], the pIC50 at PBK (setting [1]) is 7.82; in the experiment on BT-549 cells, 6.80; in the experiment with A549 cells (A549, 72 h), 6.15; in the experiment with T47D cells (T47D, 72 h), 5.72; in the experiment with HT-1197 cells (HT1197, 72 h) it was 4.82.

The values above are taken from patent US8962648B2, “Tricyclic compounds and PBK inhibitors containing the same” (OncoTherapy Science, Inc., priority 2010, dated 2015).
